Experimental data taken from patent publication US20210353557A1, “ORAL COMPOSITION CONTAINING REDUCED COENZYME Q10, METHOD FOR PRODUCING SAME, METHOD FOR PREVENTING DISCOLORATION AND DISCOLORATION PREVENTING AGENT” (SUNTORY HOLDINGS LIMITED, priority 2018, published 2021).

Test: Color difference (ΔE) after storage under accelerated condition, Reference Example 1
Format: physicochemical
Conditions: 40° C., 75% RH; for ΔE After 7 days: 7-day (168-hour) storage; for ΔE After 7 days / ΔE 0-Hour storage: n=1; for change in ΔE value after storage (in words): 7 days; for ΔE 0-Hour storage: start of storage
Description: The L value, a value, and b value of a sample were measured using a color difference meter (trade name: Spectrophotometer SE7700, available from Nippon Denshoku Industries Co., Ltd.). • The number n of samples was 3 for each standard unless otherwise mentioned. The average values of the three samples were defined as the L value, a value, and b value of the standard. • Measurement was performed five times for each sample, and the average value was output as the result. The sample was stirred for each measurement operation so that the whole sample was subjected to the measurement. • In the measurement, about 1 g of a sample was weighed out from a Petri dish for use. The sample in the Petri dish was mixed and homogenized before weighing out.
The ΔE value was calculated by the following formula.
ΔE={(ΔL)^2+(Δa)^2+(Δb)^2}^1/2
For each standard after storage for a predetermined period of time, the ΔE value was calculated based on the 0-time value (value after 0-hour storage) of the standard. For a control after storage for a predetermined period of time, the ΔE value was also calculated based on the 0-time value (value after 0-hour storage) of the control.
About 2 g each of the reduced CoQ10, sesamin compound, theanine, and dextrin were put into separate Petri dishes (n=1) and left to stand at a temperature of 40° C. and a humidity of 75% RH (accelerated condition). The L value, a value, and b value were measured at the start of storage (0-hour storage) and after 7-day (168-hour) storage, and then the ΔE value was calculated. For each sample, the change in appearance after seven days from the start of storage was visually observed.

| SMILES | ΔE After 7 days | change in ΔE value after storage (in words) | appearance by visual observation after seven days | ΔE 0-Hour storage |
| --- | --- | --- | --- | --- |
| COc1c(O)c(C)c(C/C=C(\C)CC/C=C(\C)CC/C=C(\C)CC/C=C(\C)CC/C=C(\C)CC/C=C(\C)CC/C=C(\C)CC/C=C(\C)CC/C=C(\C)CCC=C(C)C)c(O)c1OC [Standard S-1, Reduced CoQ10] | 66.4 | increase in ΔE value over time | orange | 0.0 |
| CCNC(=O)CC[C@H](N)C(=O)O [Standard S-3, Theanine] | 0.1 | little change in ΔE value after storage | white to pale yellow | 0.0 |
